Assay [1] concerns the target T1, activated human blood coagulation factor X (Homo sapiens, UniProt P00742).
T1 construct: purchased Enzyme Research Co
The assay is described as follows: Determination of activity of inhibiting the activated blood-coagulation factor X (chromogenic substrate, initial rate). Particulars: negative logarithm of concentration inhibiting 50% of initial rate, tris hydrochloride buffer pH 8.4, room temperature; for IC50: read-out: Activity of inhibiting activated blood coagulation factor X (pIC50) (converted). Type of assay: biochemical. How it is done: Determination of Activity of inhibiting the Activated Blood-coagulation Factor X
130 μl of 100 mM tris hydrochloride buffer adjusted to pH 8.4 was added to 10 μl of an aqueous solution of a compound to be tested. Then 10 μl of a 0.5 unit/ml solution of activated human blood coagulation factor X (a product of Enzyme Research Co.) in tris hydrochloride buffer of pH 8.4 was added to the resultant mixture. After the incubation at room temperature for 10 minutes, 50 μl of a solution of N-benzoyl-L-isoleucyl-L-glutamyl-glycyl-L-arginyl-P-nitroanilide hydrochloride (a product of Peptide Institute Inc.) adjusted to 0.8 mM with tris hydrochloride (pH 8.4) was added thereto. The a absorbance was determined and then the initial reaction rate was determined. A control was prepared in the same manner as that described above except that the solution of the compound to be tested was replaced with 10 μl of tris hydrochloride buffer adjusted to pH 8.4. The absorbance was determined with MICROPLATE READER Model 3550-UV (a product of BIO RAD) at a wave length of 405 nm at intervals of 15 seconds for 16 minutes.

In the next assay the target is T2, human thrombin (Homo sapiens, UniProt P00734).
T2 construct: solution of human thrombin (a product of SIGMA Co.); purchased SIGMA Co
The assay is described as follows: Determination of thrombin-inhibiting activity (chromogenic substrate S-2238, initial rate). Format: biochemical. Particulars: negative logarithm of concentration inhibiting 50% of initial rate, tris hydrochloride buffer pH 8.4, room temperature; for IC50: read-out: Thrombin-inhibiting activity (pIC50) (converted). How it is done:
Determination of Thrombin-inhibiting Activity
130 μL of 100 mM tris hydrochloride buffer adjusted to pH 8.4 was added to 10 μl of an aqueous solution of a test compound. Then 10 μl of a solution of human thrombin (a product of SIGMA Co.) adjusted to 2 units/ml with tris hydrochloride buffer of pH 8.4 was added to the resultant mixture. After the incubation at room temperature for 10 minutes, 50 μl of a solution of D-phenylalanine-L-pipecolyl-L-arginine-P-nitroanilide dihydrochloride (S-2238; a product of Daiichi Kagaku Yakuhin Co.) adjusted to 0.4 mM with tris hydrochloride buffer of pH 8.4 was added thereto. The absorbance was determined and then the initial reaction rate was determined. A control was prepared in the same manner as that described above except that the solution of the compound to be tested was replaced with 10 μl of tris hydrochloride buffer adjusted to pH 8.4. The absorbance was determined with MICROPLATE READER Model 3550-UV (a product of BIO RAD) at a wave length of 405 nm at intervals of 15 seconds for 16 minutes. The negative logarithm (pIC50) of a concentration of the test compound which inhibits 50% of the activity (initial rate) of the thrombin in the absence of the test compound was determined, and employed as the index of the activity of inhibiting thrombin.

For the next assay, the system named is blood plasma. The assay is described as follows: Determination of blood anticoagulating activity by prothrombin time (PT) determination method. As to conditions: negative logarithm of concentration which elongated PT of the control to twice as long; blood plasma of healthy people. Type of assay: biochemical, human. How it is done:
Determination of Blood Anticoagulating Activity
The blood anticoagulating activity was determined by a prothrombin time (PT) determination method. The PT was determined as follows: The blood was taken from healthy people. 3.8% aqueous trisodium citrate solution was added to the blood in a volume ratio of 1:10. The blood plasma was separated by the centrifugation. 5 μl of DMSO solution containing a test compound was added to 45 μl of the blood plasma. After the incubation apt room temperature for 2 minutes, a test tube containing the blood plasma solution was placed in Sysmex CA-3000 fully automatic blood coagulation determination device (a product of Toa Medical Electronics Co., Ltd), and incubated at 37° C. for 3 minutes. 100 μl of Sysmex PT II (rabbit brain tissue thromboplastin, 13.2 mM calcium chloride; a product of Toa Medical Electronics Co., Ltd) was fed into the test tube. PT was automatically determined with the device. A sample containing 5 μl of DMSO in place of the solution of the test compound was used as the control. The negative logarithm (pPT2) of the concentration of the test compound which elongated PT of the control to the twice as long was determined, and employed as the index of the blood anticoagulating activity.

Some results are limits rather than exact numbers.

T1 sequence (P00742 235-488 limits assumed): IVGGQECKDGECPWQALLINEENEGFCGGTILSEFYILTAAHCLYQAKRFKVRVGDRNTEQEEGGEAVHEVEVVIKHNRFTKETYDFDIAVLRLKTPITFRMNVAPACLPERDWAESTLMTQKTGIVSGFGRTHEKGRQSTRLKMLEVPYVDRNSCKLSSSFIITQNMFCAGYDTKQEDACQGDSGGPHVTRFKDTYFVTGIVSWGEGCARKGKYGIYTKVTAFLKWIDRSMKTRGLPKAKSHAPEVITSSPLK
T1 sequence (P00742 41-179 partner limits assumed): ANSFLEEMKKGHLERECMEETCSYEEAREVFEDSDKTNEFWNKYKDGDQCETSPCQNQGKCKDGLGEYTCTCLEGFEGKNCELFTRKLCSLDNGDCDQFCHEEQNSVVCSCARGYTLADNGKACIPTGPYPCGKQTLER

For the compound `CN1CC[N+](C)=C1N1CCC(CCN2C(=O)CN(C(=O)c3ccc(Cl)cc3)Cc3ccccc32)CC1.O=C([O-])C(F)(F)F` [Compd. of Ex. 178, 4-(4-chlorobenzoyl)-1-[2-(1-(1,3-dimethyl-4,5-dihydro-1H-imidazo-3-ium-2-yl)-4-piperidinyl)ethyl]-1,3,4,5-tetra-hydrobenzo[e][1,4]diazepin-2-on trifluoroacetate], the “Activity of inhibiting activated blood coagulation factor X (pIC50)” value in assay [1] stood at 7.1. Also, the “Thrombin-inhibiting activity (pIC50)” value on human thrombin is on record as less than 4.0. For the same compound, the “Human blood anticoagulating activity (pPT2)” value in the assay with blood plasma is listed as 5.8.

Regarding `CC(=N)N1CCC(Oc2ccc(CN3C(=O)CN(C(=O)c4ccc(Cl)cc4)Cc4c(Cl)cccc43)cc2)CC1.O=C(O)C(F)(F)F` [Compd. of Ex. 39, 6-chloro-4-(4-chlorobenzoyl)-1-[4-(1-(1-acetimidoyl)-4-piperidyloxy)benzyl]-1,3,4,5-tetrahydrobenzo[e][1,4]diazepin-2-on trifluoroacetate], in assay [1], the “Activity of inhibiting activated blood coagulation factor X (pIC50)” value was 6.7. Moreover, on human thrombin, the “Thrombin-inhibiting activity (pIC50)” value is on record as less than 4.0. In addition, the “Human blood anticoagulating activity (pPT2)” value in the assay on blood plasma was 4.8.

Turning to `CCOC(=O)c1ccc2c(c1)N(Cc1ccc(C3=[N+](C)CCN3C)cc1)C(=O)CN(C(=O)c1ccc(Cl)cc1)C2.O=C([O-])C(F)(F)F` [Compd. of Ex. 206, 2-[4-((4-(4-chlorobenzoyl)-8-(ethoxycarbonyl)-2-oxo-2,3,4,5-tetrahydro-1H-1,4-benzodiazepin-1-yl)methyl)phenyl]-1,3-dimethyl-4,5-dihydro-1H-imidazol-3-ium trifluoroacetate], the IC50 in assay [1] was 200 nM; on human thrombin, greater than 100 µM. For the same compound, in the assay on blood plasma, the “Human blood anticoagulating activity (pPT2)” value stood at 5.5.

Regarding `O=C(O)C(F)(F)F.O=C(c1ccc(Br)cc1)N1CC(=O)N(CC2CCN(c3ccncc3)CC2)c2ccccc2C1` [Compd. of Ex. 9, 4-(4-bromobenzoyl)-1-[1-(4-pyridyl)-4-piperidylmethyl]-1,3,4,5-tetrahydrobenzo[e][1,4]diazepin-2-on trifluoroacetate], the IC50 in assay [1] was 501 nM; at human thrombin, greater than 100 µM. For the same compound, in the assay with blood plasma, the “Human blood anticoagulating activity (pPT2)” value is given as 4.9.

As for `O=C(O)C(F)(F)F.O=C(c1ccc(Br)s1)N1CC(=O)N(CC2CCN(c3ccncc3)CC2)c2ccccc2C1` [Compd. of Ex. 25, 4-(5-bromothiophene-2-carbonyl)-1-[1-(4-pyridyl)-4-piperidylmethyl]-1,3,4,5-tetrahydrobenzo[e][1,4]diazepin-2-on trifluoroacetate], the IC50 in assay [1] was 398 nM; at human thrombin it was greater than 100 µM. Moreover, in the assay on blood plasma, the “Human blood anticoagulating activity (pPT2)” value was 4.9.

In the case of `O=C(O)C(F)(F)F.O=C(c1ccc(CN2C(=O)CN(C(=O)c3ccc(Cl)cc3)Cc3ccc(CCCN4CCCCC4)cc32)cc1)N1CC=CC1` [Compd. of Ex. 93, 8-(3-piperidin-1-yl-propyl)-1-[4-(2,5-dihydro-1H-pyrrol-1-ylcarbonyl)benzyl]-4-(4-chlorobenzoyl)-1,3,4,5-tetrahydro-benzo[e][1,4]diazepin-2-on trifluoroacetate], the IC50 in assay [1] is 79.4 nM; on human thrombin, 63.1 µM. For the same compound, the “Human blood anticoagulating activity (pPT2)” value in the assay on blood plasma worked out at 5.5.

As to `O=C(c1ccc(CN2C(=O)CN(C(=O)c3ccc(Cl)cc3)Cc3ccc(CCP(=O)(O)O)cc32)cc1)N1CCCC1` [Compd. of Ex. 71-1, [2-(4-(4-chlorobenzoyl)-2-oxo-1-(4-(1-pyrrolidinecarbonyl)benzyl)-2,3,4,5-tetrahydro-1H-benzo[e][1,4]-diazepin-8-yl)ethyl]phosphonic acid], the IC50 in assay [1] was 25.1 nM; on human thrombin it was 31.6 µM. In addition, in the assay with blood plasma, the “Human blood anticoagulating activity (pPT2)” value is on record as 5.0.

With `CCOC(=O)c1ccc2c(c1)N(Cc1ccc(C3=NCCN3C)cc1)C(=O)CN(C(=O)c1ccc(Cl)cc1)C2.O=C(O)C(F)(F)F` [Compd. of Ex. 204, ethyl 4-(4-chlorobenzoyl)-2-oxo-1-[4-(1-methyl-4,5-dihydro-1H-imidazol-2-yl)benzyl]-2,3,4,5-tetrahydro-1H-benzoyl[e][1,4]diazepine-8-carboxylate trifluoroacetate], the “Activity of inhibiting activated blood coagulation factor X (pIC50)” value in assay [1] came to 6.5. For the same compound, the “Thrombin-inhibiting activity (pIC50)” value on human thrombin is on record as less than 4.0. The “Human blood anticoagulating activity (pPT2)” value in the assay with blood plasma is 5.2.

As to `O=C(O)C(F)(F)F.O=C(c1ccc(Cl)cc1)N1CC(=O)N(CC2CCN(c3ccncc3)CC2)c2ccccc2C1` [Compd. of Ex. 2, 4-(4-chlorobenzoyl)-1-[1-(4-pyridyl)-4-piperidylmethyl]-1,3,4,5-tetrahydrobenzo[e][1,4]diazepin-2-on trifluoroacetate], the IC50 is 398 nM in assay [1] and greater than 100 µM at human thrombin. In addition, the “Human blood anticoagulating activity (pPT2)” value in the assay on blood plasma was determined as 4.9.

Regarding `CC(C)N1CCC(CN2C(=O)CN(C(=O)c3ccc(Cl)cc3)Cc3ccccc32)CC1.O=C(O)C(F)(F)F` [Compd. of Ex. 142, 4-(4-chlorobenzoyl)-1-[(1-isopropyl-4-piperidinyl)methyl]-1,3,4,5-tetrahydrobenzo[e][1,4]diazepin-2-on trifluoroacetate], the IC50 is 794 nM in assay [1] and 39.8 µM on human thrombin. The “Human blood anticoagulating activity (pPT2)” value with blood plasma turned out to be 5.5.

For the compound `N=C(c1ccc(CN2C(=O)CN(C(=O)c3ccc(Cl)cc3)Cc3ccccc32)cc1)N1CC=CC1.O=C(O)C(F)(F)F` [Compd. of Ex. 107, 4-(4-chlorobenzoyl)-1-[4-(2,5-dihydro-1H-pyrrol-1-yl(imino)methyl)benzyl]-1,3,4,5-tetrahydrobenzo[e][1,4]-diazepin-2-on trifluoroacetate], the IC50 in assay [1] was 50.1 nM; at human thrombin it was greater than 100 µM. Further, the “Human blood anticoagulating activity (pPT2)” value in the assay on blood plasma came to 5.5.

Turning to `O=C(c1ccc(CN2C(=O)CN(C(=O)c3ccc(Cl)cc3)Cc3ccc(CCP(=O)(O)O)cc32)cc1)N1CC=CC1` [Compd. of Ex. 73, [2-(4-(4-chlorobenzoyl)-2-oxo-1-[4-(2,5-dihydro-1H-pyrrol-1-ylcarbonyl)benzyl]-2,3,4,5-tetrahydro-1H-benzo[e][1,4]-diazepin-8-yl)ethyl]phosphonic acid], the IC50 was 7.94 nM in assay [1] and 39.8 µM on human thrombin. In addition, in the assay with blood plasma, the “Human blood anticoagulating activity (pPT2)” value is on record as 4.9.

As to `CN1CC[N+](C)=C1c1ccc(CN2C(=O)CN(C(=O)c3ccc(Cl)cc3)Cc3c(Cl)cccc32)cc1.O=C([O-])C(F)(F)F` [Compd. of Ex. 207, 6-chloro-4-(4-chlorobenzoyl)-1-[4-(1,3-dimethyl-4,5-dihydro-1H-imidazol-3-ium-2-yl)benzyl]-1,3,4,5-tetrahydro-benzo[e][1,4]diazepin-2-on trifluoroacetate], the IC50 in assay [1] was 31.6 nM; at human thrombin, greater than 100 µM. Also, the “Human blood anticoagulating activity (pPT2)” value with blood plasma came to 5.7.

The values above are taken from patent publication US6825191B2, “Benzodiazepine derivatives” (Ajinomoto Co., Inc., priority 2000, dated 2004).
